Assay: recombinant UMI read abundance after kanamycin selection (control-corrected) (log10(CPM+1)); higher = more efficient recombination; extreme values may be limits of the assay; sequences stand for … in AGTGCAGAGAAAATCGGCCAGTTTTCTCTGCCTGCAGTCCGCATGCCGTGGGACCCCTTGGGTTCTAACCTGTTGCCTAGATTTATGCAGCGGACTGCCTTTCTCCCAAAGTGATAAACCGG…AGGTTGGTTTCACT; site = the 11-nt donor
Procedure, shortened: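 Reported values are log10(CPM+1) from a pooled Escherichia coli screen of donor and donor-binding-loop pairs for the IS621 bridge recombinase. Selection used IPTG (0.07 mM) plus kanamycin, against unselected plating, each in two replicates. Recombinant UMIs were amplified across the donor–target junction, sequenced, converted to CPM, averaged over replicates and scaled by control-derived factors.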
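Note: IS621 bridge recombinase in Escherichia coli cells against a fixed T5 target plasmid.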

Row | Sequence | recombinant UMI read abundance (log10)
1 | TACGGCCCATGGACCGGTTTTCCCGGTAATCCGTATTTGTT (site TACGGCCCTAA) | 0.00191
2 | TACGGCGCATGGACCGGTTTTCCCGGTAATCCGTATTTGCC (site TACGGCGCTGG) | 2.01
3 | TACGTGACATGGACCGGTTTTCCCGGTAATCCGTATTTGAC (site TACGTGACTGT) | 1.74
4 | TACTCCTCATGGACCGGTTTTCCCGGTAATCCGTATTTGGG (site TACTCCTCTCC) | 0.0269
5 | TACTCTCCATGGACCGGTTTTCCCGGTAATCCGTATTTGTG (site TACTCTCCTCA) | 0.011
6 | TACTGCACATGGACCGGTTTTCCCGGTAATCCGTATTTGGG (site TACTGCACTCC) | 0.0129
7 | TACTTAACATGGACCGGTTTTCCCGGTAATCCGTATTTGCT (site TACTTAACTAG) | 0.345
8 | TACTTAACATGGACCGGTTTTCCCGGTAATCCGTATTTGCT (site TACTTCACTAG) | 0.00655
9 | TACTTAACATGGACCGGTTTTCCCGGTAATCCGTATTTGCT (site TACTTGACTAG) | 0.00699
10 | TACTTAACATGGACCGGTTTTCCCGGTAATCCGTATTTGCT (site TACTTTACTAG) | 0
11 | TACTTCACATGGACCGGTTTTCCCGGTAATCCGTATTTGCT (site TACTTAACTAG) | 0.0118
12 | TACTTCACATGGACCGGTTTTCCCGGTAATCCGTATTTGCT (site TACTTCACTAG) | 1.9
13 | TACTTCACATGGACCGGTTTTCCCGGTAATCCGTATTTGCT (site TACTTGACTAG) | 0.0117
14 | TACTTCACATGGACCGGTTTTCCCGGTAATCCGTATTTGCT (site TACTTTACTAG) | 0
15 | TACTTGACATGGACCGGTTTTCCCGGTAATCCGTATTTGGT (site TACTTGACTAA) | 0.109
16 | TACTTGACATGGACCGGTTTTCCCGGTAATCCGTATTTGGT (site TACTTGACTAC) | 0.209
17 | TACTTGACATGGACCGGTTTTCCCGGTAATCCGTATTTGGT (site TACTTGACTAG) | 0
18 | TACTTGACATGGACCGGTTTTCCCGGTAATCCGTATTTGGT (site TACTTGACTAT) | 0.179
19 | TAGAAAACATGGACCGGTTTTCCCGGTAATCCGTATTTGGA (site TAGAAAACTTC) | 0.76
20 | TAGAACACATGGACCGGTTTTCCCGGTAATCCGTATTTGCA (site TAGAAAACTTG) | 0
21 | TAGAACACATGGACCGGTTTTCCCGGTAATCCGTATTTGCA (site TAGAACACTTG) | 2.41
22 | TAGAACACATGGACCGGTTTTCCCGGTAATCCGTATTTGCA (site TAGAAGACTTG) | 0.271
23 | TAGAACACATGGACCGGTTTTCCCGGTAATCCGTATTTGCA (site TAGAATACTTG) | 1.87
24 | TAGAATACATGGACCGGTTTTCCCGGTAATCCGTATTTGAA (site TAGAATACTTA) | 0.0126
25 | TAGAATACATGGACCGGTTTTCCCGGTAATCCGTATTTGAA (site TAGAATACTTC) | 0.0116

Row | Sequence | recombinant UMI read abundance (log10)
26 | TAGAATACATGGACCGGTTTTCCCGGTAATCCGTATTTGAA (site TAGAATACTTG) | 0
27 | TAGAATACATGGACCGGTTTTCCCGGTAATCCGTATTTGAA (site TAGAATACTTT) | 0.686
28 | TAGAATACATGGACCGGTTTTCCCGGTAATCCGTATTTGCC (site TAGAATACTAG) | 0
29 | TAGAATACATGGACCGGTTTTCCCGGTAATCCGTATTTGCC (site TAGAATACTCG) | 0
30 | TAGAATACATGGACCGGTTTTCCCGGTAATCCGTATTTGCC (site TAGAATACTGG) | 0
31 | TAGAATACATGGACCGGTTTTCCCGGTAATCCGTATTTGCC (site TAGAATACTTG) | 0
32 | TAGAATACATGGACCGGTTTTCCCGGTAATCCGTATTTGCT (site TAGAATACTAG) | 1.3
33 | TAGAATACATGGACCGGTTTTCCCGGTAATCCGTATTTGCT (site TAGAATACTCG) | 0.00353
34 | TAGAATACATGGACCGGTTTTCCCGGTAATCCGTATTTGCT (site TAGAATACTGG) | 0
35 | TAGAATACATGGACCGGTTTTCCCGGTAATCCGTATTTGCT (site TAGAATACTTG) | 0.00456
36 | TAGAATCCATGGACCGGTTTTCCCGGTAATCCGTATTTGCA (site TAGAATACTTG) | 0
37 | TAGAATCCATGGACCGGTTTTCCCGGTAATCCGTATTTGCA (site TAGAATCCTTG) | 1.16
38 | TAGAATCCATGGACCGGTTTTCCCGGTAATCCGTATTTGCA (site TAGAATGCTTG) | 0
39 | TAGAATCCATGGACCGGTTTTCCCGGTAATCCGTATTTGCA (site TAGAATTCTTG) | 0
40 | TAGAATGCATGGACCGGTTTTCCCGGTAATCCGTATTTGCA (site TAGAATACTTG) | 0.258
41 | TAGAATGCATGGACCGGTTTTCCCGGTAATCCGTATTTGCA (site TAGAATCCTTG) | 0.762
42 | TAGAATGCATGGACCGGTTTTCCCGGTAATCCGTATTTGCA (site TAGAATGCTTG) | 2.71
43 | TAGAATGCATGGACCGGTTTTCCCGGTAATCCGTATTTGCA (site TAGAATTCTTG) | 0.905
44 | TAGAATTCATGGACCGGTTTTCCCGGTAATCCGTATTTGCA (site TAGAATACTTG) | 0.907
45 | TAGAATTCATGGACCGGTTTTCCCGGTAATCCGTATTTGCA (site TAGAATCCTTG) | 0
46 | TAGAATTCATGGACCGGTTTTCCCGGTAATCCGTATTTGCA (site TAGAATGCTTG) | 0
47 | TAGAATTCATGGACCGGTTTTCCCGGTAATCCGTATTTGCA (site TAGAATTCTTG) | 1.53
48 | TAGACGCCATGGACCGGTTTTCCCGGTAATCCGTATTTGTG (site TAGACGCCTCA) | 0.00987
49 | TAGCAGACATGGACCGGTTTTCCCGGTAATCCGTATTTGGT (site TAGCAGACTAC) | 0.868
50 | TAGCAGGCATGGACCGGTTTTCCCGGTAATCCGTATTTGCT (site TAGCAGGCTAG) | 1.19

Row | Sequence | recombinant UMI read abundance (log10)
51 | TAGCCTACATGGACCGGTTTTCCCGGTAATCCGTATTTGGT (site TAGCCTACTAC) | 0.00532
52 | TAGCCTACATGGACCGGTTTTCCCGGTAATCCGTATTTGGT (site TAGCCTCCTAC) | 0.0181
53 | TAGCCTACATGGACCGGTTTTCCCGGTAATCCGTATTTGGT (site TAGCCTGCTAC) | 0.0107
54 | TAGCCTACATGGACCGGTTTTCCCGGTAATCCGTATTTGGT (site TAGCCTTCTAC) | 0.0222
55 | TAGCCTTCATGGACCGGTTTTCCCGGTAATCCGTATTTGGC (site TAGCCTTCTAC) | 0.00487
56 | TAGCCTTCATGGACCGGTTTTCCCGGTAATCCGTATTTGGC (site TAGCCTTCTCC) | 0.0163
57 | TAGCCTTCATGGACCGGTTTTCCCGGTAATCCGTATTTGGC (site TAGCCTTCTGC) | 0
58 | TAGCCTTCATGGACCGGTTTTCCCGGTAATCCGTATTTGGC (site TAGCCTTCTTC) | 0.0129
59 | TAGCCTTCATGGACCGGTTTTCCCGGTAATCCGTATTTGTT (site TAGCCTTCTAA) | 1.08
60 | TAGCCTTCATGGACCGGTTTTCCCGGTAATCCGTATTTGTT (site TAGCCTTCTAC) | 0.0119
61 | TAGCCTTCATGGACCGGTTTTCCCGGTAATCCGTATTTGTT (site TAGCCTTCTAG) | 0.0127
62 | TAGCCTTCATGGACCGGTTTTCCCGGTAATCCGTATTTGTT (site TAGCCTTCTAT) | 0.00427
63 | TAGCGCGCATGGACCGGTTTTCCCGGTAATCCGTATTTGAC (site TAGCGCGCTGT) | 2.03
64 | TAGCGGTCATGGACCGGTTTTCCCGGTAATCCGTATTTGTT (site TAGCGGTCTAA) | 1.27
65 | TAGCTAGCATGGACCGGTTTTCCCGGTAATCCGTATTTGAA (site AAGCTAGCTTT) | 0.0472
66 | TAGCTAGCATGGACCGGTTTTCCCGGTAATCCGTATTTGAA (site CAGCTAGCTTT) | 0.178
67 | TAGCTAGCATGGACCGGTTTTCCCGGTAATCCGTATTTGAA (site GAGCTAGCTTT) | 0
68 | TAGCTAGCATGGACCGGTTTTCCCGGTAATCCGTATTTGAA (site TAACTAGCTTT) | 0.822
69 | TAGCTAGCATGGACCGGTTTTCCCGGTAATCCGTATTTGAA (site TACCTAGCTTT) | 0.015
70 | TAGCTAGCATGGACCGGTTTTCCCGGTAATCCGTATTTGAA (site TAGATAGCTTT) | 0.0135
71 | TAGCTAGCATGGACCGGTTTTCCCGGTAATCCGTATTTGAA (site TAGCAAGCTTT) | 0.00493
72 | TAGCTAGCATGGACCGGTTTTCCCGGTAATCCGTATTTGAA (site TAGCCAGCTTT) | 0.0109
73 | TAGCTAGCATGGACCGGTTTTCCCGGTAATCCGTATTTGAA (site TAGCGAGCTTT) | 0.0252
74 | TAGCTAGCATGGACCGGTTTTCCCGGTAATCCGTATTTGAA (site TAGCTAACTTT) | 0.0471
75 | TAGCTAGCATGGACCGGTTTTCCCGGTAATCCGTATTTGAA (site TAGCTACCTTT) | 0.0202
